Patent US20150374709A1, “TETRA-SUBSTITUTED NDGA DERIVATIVES VIA ETHER BONDS AND CARBAMATE BONDS AND THEIR SYNTHESIS AND PHARMACEUTICAL USE” (ERIMOS PHARMACEUTICALS LLC, priority 2006, published 2015)

Key:
A549 (lung carcinoma) = test: MTS cell viability assay, A549; type: cell-based; details: Homo sapiens, A549; MTS assay; read-out: A549 IC50
From the text: Studies performed regarding cytotoxicity included the well-known MTS, Trypan Blue and MTT protocols. The MTS studies were done using the CellTiter 96®AQueous One Solution Cell Proliferation Assay (Promega Corporation, Madison, Wis. USA). Metabolically active, namely viable, cells turn MTS, a tetrazolium compound (3-(4,5-dimethylthiazol-2-yl)-5-(3-carboxymethoxyphenyl)-2-(4-sulfophenyl)-2H-tetrazolium, inner salt) into colored formazan, which is soluble in tissue culture medium. The measurement of the absorbance of the formazan is read at 490 nm. The ready to use reagent is added directly to the cells in media in 96-well plates, incubated 1-4 hours and the results are recorded by the plate reader. The IC50 is estimated by graphing the gathered data. The IC50 is the concentration of the tested material that inhibits 50% of growth or viability of the tested material compared to a control.
Three cell lines obtained from ATCC and maintained as directed by ATCC were tested: HeLa (cervical adenocarcinoma), A549 (lung carcinoma), and COS-7 (SV40 transformed monkey kidney). Studies of these cell lines are considered to be indicative of the effect of tested substances on mammalian, including human, diseases.
All compounds were dissolved in DMSO and DMSO is used as the placebo. The samples were first dissolved into 10 mM dilutions in DMSO and then diluted further to 5, 1, 0.5, 0.1, 0.05, and 0.01 mM solutions. These solutions were added to the media at a 1% concentration (1 μl to 100 μl media) to treat the cells with 100, 50, 10, 5, 1, 0.5, and 0.1 μM of the compound. […] Solutions were checked before use for precipitation, especially the 10 mM solutions. If there was precipitation, they were warmed 65° C. and added to warmed media.
Wells on a 96-well plate were seeded with 1.5-8×10^4 cells in 100 μl media and incubated overnight. The outside wells of the plate were filled with 200 μl sterile, deionized (DI) water to curb media evaporation. After 24 hours, test chemicals were prepared in media at a concentration of 1% media volume. The test sample media were added, mixing with pipette before adding 100 μl per well. Media was added to the “Media Only” wells. The well plate and its contents were incubated for 24-72 hours, depending on the study conducted. On the thy of the MTS assay, the MTS reagent was removed from the refrigerator and brought to room temperature. Using the multichannel pipette, 20 μl of the MTS reagent was added to each well and incubated for one to four hours. The plate was read at 490 nm with a reference wavelength of 690 nm after one hour in the incubator thereafter until the blank wells were at about 0.2 OD. The results were then scanned into a Microsoft® Excel® template designed to perform all necessary calculations whim data are entered. The data were checked for statistical errors; data points that are within 10% of the mean of the data points for that group were included. The average of the blanks (“Media Only”) were subtracted and the data were inserted into a chart that represents growth response, treated/untreated.

[1] = Non-specific binding to 24-well assay plate without cells; type: in vitro ADME; details: single well of a 24-well assay plate without cells, nominal conc. 1.0 μM, single well of 24-well plate without cells
Method: To determine the extent of non-specific binding of the sample to the assay plate, the sample solution was incubated under the conditions described above in a single well of a 24-well assay plate. After 90 minutes, the sample was removed from each well for analysis. After all samples were collected, lucifer yellow solution was added to each monolayer at a final concentration of 100 μM. The inserts were placed in a new receiver plate containing transport buffer. After a 30 min. incubation on an orbital shaker (50 rpm) at 37° C., with ambient humidity and CO2, samples were removed from the receiver chamber to measure percent lucifer yellow flux.
The recovery of Compound A from the apical and basolateral chambers (mass balance) as well as from a single well of a 24-well culture plate without cells (non-specific binding) at the end of the incubation is reported in Table 9.

Compound `C[C@H](Cc1ccc(OCCCN2CCCCC2)c(OCCCN2CCCCC2)c1)[C@@H](C)Cc1ccc(OCCCN2CCCCC2)c(OCCCN2CCCCC2)c1` [Compound A, 1,4-bis{3,4-bis[3-(piperidin-1-yl)propoxy]phenyl}-2,3-dimethyl-(2R,3S)-butane] has an IC50 (A549 (lung carcinoma)) of 800 to 900 nM and a recovery at 90 min, 1 μM [1] of 13%.
